Assay results from ChEMBL document CHEMBL3585247, “In Vitro Inhibitory Effects of 8-O-Demethylmaritidine and Undulatine on Acetylcholinesterase and Their Predicted Penetration across the Blood-Brain Barrier” (J Nat Prod, 2015).

Key:
[1] = molecular target: Acetylcholinesterase (Electrophorus electricus, UniProt O42275); experiment: Inhibition of electric eel AChE using acetylthiocholine as substrate assessed as concentration of 5-thio-2-nitrobenzoic acid ion formed by spectrophotometric/Ellman's method
[2] = Permeability of the compound by PAMPA-BBB assay

Sequence of Acetylcholinesterase (O42275 whole entry): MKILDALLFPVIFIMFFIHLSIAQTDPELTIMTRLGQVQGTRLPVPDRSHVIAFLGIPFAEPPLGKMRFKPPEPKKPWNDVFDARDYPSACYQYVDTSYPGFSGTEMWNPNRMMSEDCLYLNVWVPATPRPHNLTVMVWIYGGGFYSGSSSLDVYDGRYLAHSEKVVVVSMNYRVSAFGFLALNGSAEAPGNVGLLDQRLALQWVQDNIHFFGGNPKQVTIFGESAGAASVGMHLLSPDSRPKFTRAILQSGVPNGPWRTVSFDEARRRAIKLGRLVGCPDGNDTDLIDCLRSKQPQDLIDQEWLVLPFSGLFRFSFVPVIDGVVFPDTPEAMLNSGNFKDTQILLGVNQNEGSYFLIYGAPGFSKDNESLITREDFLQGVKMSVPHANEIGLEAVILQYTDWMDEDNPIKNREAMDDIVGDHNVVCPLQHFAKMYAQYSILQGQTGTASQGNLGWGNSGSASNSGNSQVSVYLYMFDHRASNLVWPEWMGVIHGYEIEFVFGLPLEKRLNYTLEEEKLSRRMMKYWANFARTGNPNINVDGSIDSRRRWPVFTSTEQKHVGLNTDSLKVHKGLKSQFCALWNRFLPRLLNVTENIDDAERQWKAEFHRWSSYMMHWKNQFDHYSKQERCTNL

Structure (SMILES) | IC50 [1] [µM] | Papp [2] [×10⁻⁶ cm/s]
COc1cc2c(cc1O)CN1CC[C@@]23C=CC(O)C[C@H]13 (some centres undefined) | 57.4 | 0.7
COc1c2c(cc3c1[C@@]14CCN(C3)[C@@H]1C[C@@H](OC)[C@@H]1O[C@@H]14)OCO2 | 7.4 | 18.3
